Measurements as given in the supplement of paper PMC4858399.
Counter-ions that a name gives are not always drawn.

How the values were obtained:
Settings in all cases: exposure time 48 h
[1] = tested on: Caenorhabditis elegans N2; test: AC50 for larval growth inhibition (Hill fit); higher = less potent
Summary of the method: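 After 48 h at 20°C in K-medium with killed OP50, 1% DMSO and 0.5–200 µM chemical, synchronised C. elegans N2 L1 larvae (50 per well, 96-well plates) were sized individually as extinction on a COPAS Biosort. These values were log-transformed and averaged per well, and wells with fewer than 10 worms were excluded. The AC50 was derived from a constrained Hill fit by weighted genetic-algorithm regression, and out-of-range values are censored.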

[2] = tested on: Caenorhabditis elegans N2; test: lowest effective concentration for larval growth inhibition (size below effect threshold); higher = less potent
Summary of the method: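 Each well of a 96-well plate received 50 C. elegans N2 L1 larvae, which grew for 48 h at 20°C in K-medium containing killed bacteria, 1% DMSO and the chemical at 0.5, 1, 5, 10, 50, 100 or 200 µM. A Biosort recorded the extinction of every worm as its size, and these readings were log-transformed and averaged per well. The lowest effective concentration is defined as the first dose at which the plate-adjusted mean size falls below the threshold and stays below it at all higher doses; that threshold is 5.665.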

[3] = tested on: Caenorhabditis elegans N2; test: mean nematode size ln(EXT) after 48 h, plate-adjusted (DMSO control set to 6) (ln(EXT), control-adjusted); higher = larger nematodes / less growth inhibition
Summary of the method: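 C. elegans N2 larvae, synchronised at L1, grew for 48 h at 20°C in K-medium with killed OP50, 1% DMSO and 0.5–200 µM chemical. Mean size per well was derived from natural-logged Biosort extinction after a growth model removed debris. Adjustment across plates involved subtracting the vehicle control mean and adding 6.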

| Structure (SMILES) | AC50 for larval growth inhibition [1] [µM] | lowest effective concentration [2] [µM] | mean nematode size ln(EXT) (ln) ([3]; 0.5 µM) | mean nematode size ln(EXT) (ln) ([3]; 1 µM) | mean nematode size ln(EXT) (ln) ([3]; 5 µM) | mean nematode size ln(EXT) (ln) ([3]; 10 µM) | mean nematode size ln(EXT) (ln) ([3]; 50 µM) | mean nematode size ln(EXT) (ln) ([3]; 100 µM) | mean nematode size ln(EXT) (ln) ([3]; 200 µM) |
| --- | --- | --- | --- | --- | --- | --- | --- | --- | --- |
| CCCCNC(=O)n1c(NC(=O)OC)nc2ccccc21 [Benomyl] | > 200 | 10 | 6.03 | 6.07 | 5.68 | 5.58 | 5.36 | 5.4 | 4.35 |
| COC(=O)N(C(=O)N1CO[C@@]2(C(=O)OC)Cc3cc(Cl)ccc3C2=N1)c1ccc(OC(F)(F)F)cc1 [Indoxacarb] | 6.41 | 5 | 6 | 5.91 | 5.25 | 4.02 | 3.6 | 3.56 | 3.48 |
| CNCc1ccc(NC(=O)c2c[nH]c3c2C(=O)CCC3)cc1 | > 200 | 200 | 5.9 | 6.14 | 6.21 | 6.19 | 6.15 | 6.09 | 5.65 |
| ClC1(Cl)C2(Cl)C3(Cl)C4(Cl)C(Cl)(Cl)C5(Cl)C3(Cl)C1(Cl)C5(Cl)C24Cl (stereo not given) [Mirex] | > 200 | 50 | 5.34 | 5.5 | 5.57 | 6.06 | 5.56 | 5.51 | 5.59 |
| COP(=S)(OC)Oc1ccc([N+](=O)[O-])c(C)c1 [Fenitrothion] | 37 | 5 | 5.97 | 5.72 | 5.6 | 5.46 | 4.49 | 3.96 | 4.09 |
| CC(C)(c1cc(Br)c(O)c(Br)c1)c1cc(Br)c(O)c(Br)c1 [3,3',5,5'-Tetrabromobisphenol A] | 28.3 | 10 | 5.84 | 5.92 | 5.93 | 5.56 | 4.75 | 4.36 | 4.27 |
| O=C(Nc1ccccc1-c1ccc(Cl)cc1)c1cccnc1Cl [Boscalid] | 9.83 | 50 | 6.09 | 6 | 5.75 | 5.68 | 4.94 | 5.21 | 5.39 |
| COc1nn(CSP(=S)(OC)OC)c(=O)s1 [Methidathion] | > 200 | 1 | 5.74 | 5.62 | 5.48 | 5.52 | 5.57 | 5.38 | 4.52 |
| CCC(C)(NC(=O)c1cc(Cl)c(C)c(Cl)c1)C(=O)CCl (stereo not given) [Zoxamide] |  | > 200 | 5.75 | 5.81 | 5.67 | 5.64 | 5.48 | 4.67 | 5.7 |
| Cc1cc(C)c(O)c(C)c1 [2,4,6-Trimethylphenol] |  | > 200 | 5.76 | 5.87 | 5.85 | 5.84 | 5.87 | 5.86 | 5.76 |
| CCCCC(CC)C(=O)OCCOCCOCCOC(=O)C(CC)CCCC (stereo not given) [Tri(ethylene glycol) bis(2-ethylhexanoate)] |  | > 200 | 5.84 | 5.86 | 6 | 5.97 | 5.86 | 5.84 | 5.79 |
| NCCO [Ethanolamine] |  | > 200 | 5.86 | 5.87 | 5.79 | 5.73 | 5.75 | 5.76 | 5.76 |
| Oc1ccc(O)cc1 [Hydroquinone] |  | > 200 | 5.99 | 6.02 | 6.04 | 6.02 | 6.1 | 6.09 | 5.72 |
| CCOC(=O)c1ccc(O)cc1 [Ethylparaben] |  | > 200 | 5.98 | 5.82 | 5.93 | 5.81 | 5.84 | 5.84 | 5.74 |
| CC1(C)CON(Cc2ccccc2Cl)C1=O [Clomazone] |  | > 200 | 6.09 | 6.23 | 6.29 | 6.06 | 6.2 | 6.07 | 5.68 |
| CN/C(=N\[N+](=O)[O-])NCc1cnc(Cl)s1 [Clothianidin] |  | > 200 | 5.89 | 5.99 | 5.78 | 6.1 | 6.05 | 6.02 | 5.96 |
| CC1(C)NC(=O)NC1=O [5,5-Dimethylhydantoin] |  | > 200 | 5.74 | 5.99 | 6.06 | 5.91 | 5.97 | 5.93 | 5.79 |
| Cc1ccc([N+](=O)[O-])cc1N [2-Methyl-5-nitroaniline] |  | 50 | 5.93 | 5.42 | 5.81 | 5.9 | 5.13 | 5.58 | 5.66 |
| Cn1cnc2c1c(=O)[nH]c(=O)n2C [Theobromine] |  | > 200 | 5.83 | 5.87 | 5.98 | 6.03 | 5.87 | 5.86 | 5.83 |
| O=C([O-])c1ccccc1.[Na+] [Sodium benzoate] |  | > 200 | 5.83 | 5.83 | 5.95 | 5.83 | 5.86 | 5.76 | 5.68 |
| CC1(C)C(=O)NC(=O)N1CO [1-(Hydroxymethyl)-5,5-dimethylhydantoin] |  | > 200 | 5.87 | 6.04 | 5.96 | 5.91 | 5.91 | 5.85 | 5.69 |
| CCOC(=O)CC(O)(CC(=O)OCC)C(=O)OCC [Triethyl citrate] |  | > 200 | 6.01 | 5.99 | 6.04 | 6.03 | 6.03 | 6.08 | 5.71 |
| O=C1CCCCCN1 [Caprolactam] |  | > 200 | 5.8 | 5.81 | 5.84 | 5.87 | 5.88 | 5.55 | 5.68 |
| COP(=O)(OC)O/C(C)=C/C(=O)N(C)C [Dicrotophos] |  | > 200 | 6.11 | 6.42 | 6.04 | 6.07 | 6.05 | 6.05 | 5.85 |
